US10647713B2 (Nimbus Lakshmi, Inc., priority 2016, dated 2020)

Biological target: human TYK2 (JH2domain-pseudokinase) (Homo sapiens (Human), UniProt P29597)
Assay: TYK2 JH2 Domain Binding Assay (KINOMEscan, DiscoveRx)
Conditions: 11-point dilution, duplicate
How it was run: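 Kd from duplicate 11-point 3-fold dilutions starting at 30,000 nM, fitted by Hill equation with slope fixed at −1. Compounds (final 0.9% DMSO) displace DNA-tagged HEK293-expressed TYK2 JH2 fusion (<0.1 nM) from ligand-coated beads over 1 h at room temperature; eluted kinase read by qPCR.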

human TYK2 (JH2domain-pseudokinase), sequence (P29597 556-888): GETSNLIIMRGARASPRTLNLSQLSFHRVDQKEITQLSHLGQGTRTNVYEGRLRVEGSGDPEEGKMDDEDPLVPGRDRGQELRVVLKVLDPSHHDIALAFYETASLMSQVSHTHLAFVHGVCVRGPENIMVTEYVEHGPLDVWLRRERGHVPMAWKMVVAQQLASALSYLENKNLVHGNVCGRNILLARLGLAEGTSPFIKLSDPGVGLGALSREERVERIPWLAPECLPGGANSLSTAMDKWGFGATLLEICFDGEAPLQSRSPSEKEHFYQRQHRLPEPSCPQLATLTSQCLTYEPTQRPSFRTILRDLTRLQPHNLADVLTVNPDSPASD

Structure (SMILES)	Kd
COc1c(Nc2cc(Nc3cnc(C(C)(C)OC)c(C#N)n3)nc3[nH]c(C)nc23)cccc1-c1nnn(C)n1 [I-204, 6-((7-((2-methoxy-3-(2-methyl-2H-tetrazol-5-yl)phenyl)amino)-2-methyl-3H-imidazo[4,5-b]pyridin-5-yl)amino)-3-(2-methoxypropan-2-yl)pyrazine-2-carbonitrile]	0.5 to 1 nM
CS(=O)(=O)c1cc(Cl)ccc1Nc1cc(NC(=O)[C@H]2C[C@H]2F)nc2[nH]c(C(F)F)nc12 [I-205]	0.5 to 1 nM
COc1c(Nc2cc(Nc3cc(C(F)(F)F)n(C)n3)nc3[nH]c(C(F)F)nc23)cccc1-c1ncn(C)n1 [I-206, 2-(difluoromethyl)-N7-(2-methoxy-3-(1-methyl-1H-1,2,4-triazol-3-yl)phenyl)-N5-(1-methyl-5-(trifluoromethyl)-1H-pyrazol-3-yl)-3H-imidazo[4,5-b]pyridine-5,7-diamine]	1 to 10 nM
Cc1nc2c(Nc3ccc(-c4cncn4C)cc3N(C)S(C)(=O)=O)cc(NC(=O)[C@@H]3C[C@@H]3F)nc2[nH]1 [I-208, (1S,2S)-2-fluoro-N-(2-methyl-7-((4-(1-methyl-1H-imidazol-5-yl)-2-(N-methylmethylsulfonamido)phenyl)amino)-3H-imidazo[4,5-b]pyridin-5-yl)cyclopropane-1-carboxamide]	1 to 10 nM
Cc1nc2c(Nc3ccc(-c4cnn(C)c4)cc3N(C)S(C)(=O)=O)cc(NC(=O)[C@@H]3C[C@@H]3F)nc2[nH]1 [I-209, (1S,2S)-2-fluoro-N-(2-methyl-7-((4-(1-methyl-1H-pyrazol-4-yl)-2-(N-methylmethylsulfonamido)phenyl)amino)-3H-imidazo[4,5-b]pyridin-5-yl)cyclopropane-1-carboxamide]	0.1 to 0.5 nM
Cn1ccc(-c2ccc(Nc3cc(NC(=O)[C@@H]4C[C@@H]4F)nc4[nH]c(C(F)F)nc34)c(S(C)(=O)=O)c2)n1 [I-210, (1S,2S)—N-(2-(difluoromethyl)-7-((4-(1-methyl-1H-pyrazol-3-yl)-2-(methylsulfonyl)phenyl)amino)-3H-imidazo[4,5-b]pyridin-5-yl)-2-fluorocyclopropane-1-carboxamide]	0.1 to 0.5 nM
Cc1nc2c(Nc3ccc(-c4ccn(C)n4)cc3S(C)(=O)=O)cc(NC(=O)[C@@H]3C[C@@H]3F)nc2[nH]1 [I-211, (1S,2S)-2-fluoro-N-(2-methyl-7-((4-(1-methyl-1H-pyrazol-3-yl)-2-(methylsulfonyl)phenyl)amino)-3H-imidazo[4,5-b]pyridin-5-yl)cyclopropane-1-carboxamide]	0.1 to 0.5 nM
Cn1cncc1-c1ccc(Nc2cc(NC(=O)C3CC3)nc3[nH]c(C(F)F)nc23)c(S(C)(=O)=O)c1 [I-214, N-(2-(difluoromethyl)-7-((4-(1-methyl-1H-imidazol-5-yl)-2-(methylsulfonyl)phenyl)amino)-3H-imidazo[4,5-b]pyridin-5-yl)cyclopropanecarboxamide]	< 0.1 nM
Cc1nc2c(Nc3ccc(-c4cncn4C)cc3S(C)(=O)=O)cc(NC(=O)C3CC3)nc2[nH]1 [I-215, N-(2-methyl-7-((4-(1-methyl-1H-imidazol-5-yl)-2-(methylsulfonyl)phenyl)amino)-3H-imidazo[4,5-b]pyridin-5-yl)cyclopropanecarboxamide]	< 0.1 nM
Cc1cc(-c2ccc(Nc3cc(NC(=O)C4CC4)nc4[nH]c(C(F)F)nc34)c(S(C)(=O)=O)c2)nn1C [I-216, N-(2-(difluoromethyl)-7-((4-(1,5-dimethyl-1H-pyrazol-3-yl)-2-(methylsulfonyl)phenyl)amino)-3H-imidazo[4,5-b]pyridin-5-yl)cyclopropanecarboxamide]	< 0.1 nM
Cc1nc2c(Nc3ccc(-c4cc(C)n(C)n4)cc3S(C)(=O)=O)cc(NC(=O)C3CC3)nc2[nH]1 [I-217, N-(7-((4-(1,5-dimethyl-1H-pyrazol-3-yl)-2-(methylsulfonyl)phenyl)amino)-2-methyl-3H-imidazo[4,5-b]pyridin-5-yl)cyclopropanecarboxamide]	< 0.1 nM
CN(c1cc([C@H]2CCCCO2)ccc1Nc1cc(NC(=O)C2CC2)nc2[nH]c(C(F)F)nc12)S(C)(=O)=O [I-218, (R)—N-(2-(difluoromethyl)-7-((2-(N-methylmethylsulfonamido)-4-(tetrahydro-2H-pyran-2-yl)phenyl)amino)-3H-imidazo[4,5-b]pyridin-5-yl)cyclopropanecarboxamide]	0.1 to 0.5 nM
CN(c1cc([C@@H]2CCCCO2)ccc1Nc1cc(NC(=O)C2CC2)nc2[nH]c(C(F)F)nc12)S(C)(=O)=O [I-219, (S)—N-(2-(difluoromethyl)-7-((2-(N-methylmethylsulfonamido)-4-(tetrahydro-2H-pyran-2-yl)phenyl)amino)-3H-imidazo[4,5-b]pyridin-5-yl)cyclopropanecarboxamide]	0.1 to 0.5 nM
CS(=O)(=O)c1cc(C2CCC2)ccc1Nc1cc(NC(=O)C2CC2)nc2[nH]c(C(F)F)nc12 [I-220, N-(7-((4-cyclobutyl-2-(methylsulfonyl)phenyl)amino)-2-(difluoromethyl)-3H-imidazo[4,5-b]pyridin-5-yl)cyclopropanecarboxamide]	1 to 10 nM
Cc1nc2c(Nc3ccc(C4CCC4)cc3S(C)(=O)=O)cc(NC(=O)C3CC3)nc2[nH]1 [I-221, N-(7-((4-cyclobutyl-2-(methylsulfonyl)phenyl)amino)-2-methyl-3H-imidazo[4,5-b]pyridin-5-yl)cyclopropanecarboxamide]	0.5 to 1 nM
COCc1ccc(Nc2cc(NC(=O)C3CC3)nc3[nH]c(C(F)F)nc23)c(S(C)(=O)=O)c1 [I-222, N-(2-(difluoromethyl)-7-((4-(methoxymethyl)-2-(methylsulfonyl)phenyl)amino)-3H-imidazo[4,5-b]pyridin-5-yl)cyclopropanecarboxamide]	0.1 to 0.5 nM
COCc1ccc(Nc2cc(NC(=O)C3CC3)nc3[nH]c(C)nc23)c(S(C)(=O)=O)c1 [I-223, N-(7-((4-(methoxymethyl)-2-(methylsulfonyl)phenyl)amino)-2-methyl-3H-imidazo[4,5-b]pyridin-5-yl)cyclopropanecarboxamide]	0.1 to 0.5 nM
Cc1nc2c(Nc3ccc(-c4ccn(C)n4)cc3S(C)(=O)=O)cc(NC(=O)[C@@H]3C[C@@H]3F)nc2[nH]1 [I-224, (1S,2S)-2-fluoro-N-(2-methyl-7-((4-(1-methyl-1H-pyrazol-3-yl)-2-(methylsulfonyl)phenyl)amino)-3H-imidazo[4,5-b]pyridin-5-yl)cyclopropane-1-carboxamide]	< 0.1 nM

Other lines, results leading:

Kd	Structure (SMILES)
0.1 to 0.5 nM	Cc1nc2c(Nc3ccc(-c4ccn(C)n4)cc3S(C)(=O)=O)cc(NC(=O)[C@H]3C[C@H]3F)nc2[nH]1 [I-225, (1R,2R)-2-fluoro-N-(2-methyl-7-((4-(1-methyl-1H-pyrazol-3-yl)-2-(methylsulfonyl)phenyl)amino)-3H-imidazo[4,5-b]pyridin-5-yl)cyclopropane-1-carboxamide]
0.1 to 0.5 nM	Cc1nc2c(Nc3ccc(C4CCOCC4)cc3S(C)(=O)=O)cc(NC(=O)C3CC3)nc2[nH]1 [I-226, N-(2-methyl-7-((2-(methylsulfonyl)-4-(tetrahydro-2H-pyran-4-yl)phenyl)amino)-3H-imidazo[4,5-b]pyridin-5-yl)cyclopropanecarboxamide]
0.1 to 0.5 nM	Cc1nc2c(Nc3ccc(-c4cn(C)cn4)cc3S(C)(=O)=O)cc(NC(=O)[C@H]3CC3(F)F)nc2[nH]1 [I-227, (R)-2,2-difluoro-N-(2-methyl-7-((4-(1-methyl-1H-imidazol-4-yl)-2-(methylsulfonyl)phenyl)amino)-3H-imidazo[4,5-b]pyridin-5-yl)cyclopropane-1-carboxamide]
1 to 10 nM	Cc1nc2c(Nc3ccc(-c4cn(C)cn4)cc3S(C)(=O)=O)cc(NC(=O)[C@@H]3CC3(F)F)nc2[nH]1 [I-228, (S)-2,2-difluoro-N-(2-methyl-7-((4-(1-methyl-1H-imidazol-4-yl)-2-(methylsulfonyl)phenyl)amino)-3H-imidazo[4,5-b]pyridin-5-yl)cyclopropane-1-carboxamide]
1 to 10 nM	CS(=O)(=O)N(c1ccccc1Nc1cc(Nc2cccc(C#N)n2)nc2[nH]c(C(F)F)nc12)C(F)F [I-229, N-(2-((5-((6-cyanopyridin-2-yl)amino)-2-(difluoromethyl)-3H-imidazo[4,5-b]pyridin-7-yl)amino)phenyl)-N-(difluoromethyl)methanesulfonamide]
0.5 to 1 nM	CN(c1cc(-c2cnn(C)c2)ccc1Nc1cc(NC(=O)[C@@H]2CC2(F)F)nc2[nH]c(C(F)F)nc12)S(C)(=O)=O [I-230, (S)—N-(2-(difluoromethyl)-7-((4-(1-methyl-1H-pyrazol-4-yl)-2-(N-methylmethylsulfonamido)phenyl)amino)-3H-imidazo[4,5-b]pyridin-5-yl)-2,2-difluorocyclopropane-1-carboxamide]
1 to 10 nM	CN(c1cc(-c2cnn(C)c2)ccc1Nc1cc(NC(=O)[C@H]2CC2(F)F)nc2[nH]c(C(F)F)nc12)S(C)(=O)=O [I-231, (R)—N-(2-(difluoromethyl)-7-((4-(1-methyl-1H-pyrazol-4-yl)-2-(N-methylmethylsulfonamido)phenyl)amino)-3H-imidazo[4,5-b]pyridin-5-yl)-2,2-difluorocyclopropane-1-carboxamide]
0.1 to 0.5 nM	CS(=O)(=O)c1cc(C2CCOCC2)ccc1Nc1cc(NC(=O)C2CC2)nc2[nH]c(C(F)F)nc12 [I-232, N-(2-(difluoromethyl)-7-((2-(methylsulfonyl)-4-(tetrahydro-2H-pyran-4-yl)phenyl)amino)-3H-imidazo[4,5-b]pyridin-5-yl)cyclopropanecarboxamide]
0.1 to 0.5 nM	Cc1nc2c(Nc3ccc(-c4cnn(C)c4)cc3N(C)S(C)(=O)=O)cc(NC(=O)[C@@H]3CC3(F)F)nc2[nH]1 [I-233, (S)-2,2-difluoro-N-(2-methyl-7-((4-(1-methyl-1H-pyrazol-4-yl)-2-(N-methylmethylsulfonamido)phenyl)amino)-3H-imidazo[4,5-b]pyridin-5-yl)cyclopropane-1-carboxamide]
1 to 10 nM	Cc1nc2c(Nc3ccc(-c4cnn(C)c4)cc3N(C)S(C)(=O)=O)cc(NC(=O)[C@H]3CC3(F)F)nc2[nH]1 [I-234, (R)-2,2-difluoro-N-(2-methyl-7-((4-(1-methyl-1H-pyrazol-4-yl)-2-(N-methylmethylsulfonamido)phenyl)amino)-3H-imidazo[4,5-b]pyridin-5-yl)cyclopropane-1-carboxamide]
